Test results taken from patent EP0768085A1, “ANTIBACTERIAL AGENT” (DAIICHI PHARMACEUTICAL CO., LTD., priority 1994, dated 1996).
Values after ≈ are worked out from the molar mass of the structure shown.

What was measured:
Type in all cases: cell-based
Pasteurella from fish = assay: Antibacterial activity (IC), agar as in Example 8, media with 1.5% NaCl, 25°C (Example 20, Tables 53-55); details: for MIC: Pasteurella piscicida KP94-02
Description: (§1) The antibacterial action was evaluated by the inhibitory concentration (hereinafter abbreviated as IC) at which propagation of the bacteria cultured at 37°C for 18 hours was inhibited. Inhibition was determined by the turbidity of the medium. The expressions "IC≤100", "≤10", and "≤1" indicate that MIC-equivalent values obtained at the succesive […] dilution of the sample are 100-10 µg/ml, 10-1 µg/ml, and not more than 1 µg/ml, respectively. […] (In the subsequent Examples, the same rule applies correspondingly.) Table 39
(§2) A suitable amount of a sample was dissolved in dimethylsulfoxide (DMSO), after which the resulting solution was diluted with the same amount of sterilized distilled water to prepare a bulk sample of 1,000 µg/ml. Separately, a bacterial liquid for the test (methicillin-resistant Staphylococcus aureus (MRSA) isolated from humans) which had been cultured in Mueller-Hinton broth (product of DIFCO) was prepared and inoculated to a Mueller-Hinton agar (product of DIFCO) containing the sample so that the final inoculation amount of 10^6 CFU/ml was achieved. The final concentrations of the samples were 100, 10, and 1 µg/ml.
(§3) After culturing at 37°C for 18 hours, the antibacterial activity was evaluated in terms of IC in a manner similar to that described in Example 4.
(§4) In a manner similar to that described in Example 8, antibacterial activity of a variety of ketonitrile derivatives shown in Tables 53-55 was measured. The bacteria used for the test were Enterococcus and Pasteurella from fish. The culture conditions were such that the media contained 1.5% NaCl, and the culture temperature was 25°C.

Enterococcus from fish = assay: as above; details: for MIC: Enterococcus Seriolicida SE94-002
Description: as §1, §2, §3, §4

[1] = system: Staphylococcus aureus (209-P); assay: Antibacterial activity (IC), agar as in Example 8 (Example 15, Table 48); details: 18 h
Description: as §1, §2, §3
The bacterium used for the test was Staphylococcus aureus (209-P).

[2] = system: methicillin-resistant Staphylococcus aureus (MRSA) from humans; assay: Antibacterial activity (IC), agar as in Example 8 (Example 19, Table 52); details: 18 h
Description: as §1, §2, §3
In a manner similar to that described in Example 8, antibacterial activity of a variety of ketonitrile derivatives shown in Table 52 was measured. The bacterium used for the test was methicillin-resistant Staphylococcus aureus (MRSA) from humans.

[3] = system: Pasteurella multocida (Kobe-6); assay: Antibacterial activity (IC), agar as in Example 8 (Example 17, Table 50); details: 18 h, origin pig
Description: as §1, §2, §3
In a manner similar to that described in Example 8, antibacterial activity of the invention compound was determined. The bacterium used for the test was Pasteurella Kobe-6 (origin: pig, Pasteurella multocida).

[4] = system: Streptococcus aureus (TI-1); assay: Antibacterial activity (IC), agar as in Example 8 (Example 16, Table 49); details: 18 h
Description: as §1, §2, §3
In a manner similar to that described in Example 8, antibacterial activity of the invention compound was determined. The bacterium used for the test was […] aureus (TI-1).

[5] = system: Staphylococcus aureus 209-P; assay: Antibacterial activity (IC), Mueller-Hinton broth, 96-well microplate (Example 4, Table 39); details: 37°C, 18 hours
Description: (§5) A suitable amount of a sample was dissolved in dimethylsulfoxide (DMSO), and the resultant solution was diluted with the same amount of sterilized distilled water to prepare a bulk sample of 1,000 µg/ml. Mueller-Hinton broth (product of DIFCO) was dispensed into each well of 96-well microplate. Thereafter, the bulk specimen was added to the first well of a row, and successively diluted (10-fold each time) with sterilized distilled water. Separately, a bacterial cell suspension for the test (Staphylococcus aureus 209-P) which had been cultured in the above-mentioned broth overnight at 37°C was inoculated to each well so that the final inoculation amount of 10^6 CFU/ml was attained. The final concentrations of the samples were 100, 10, and 1 µg/ml.
as §1

[6] = system: Pasteurella multocida (Kobe-6); assay: Antibacterial activity (IC), broth microplate as in Example 4 (Example 6, Table 41); details: 18 h, origin pig
Description: as §5, §1
In a manner similar to that described in Example 4, antibacterial activity of the invention compound was determined. The bacterium used for the test was Pasteurella Kobe-6 (origin: pig; Pasteurella multocida).

[7] = system: Staphylococcus aureus TI-1; assay: Antibacterial activity (IC), broth microplate as in Example 4 (Example 5, Table 40); details: TI1, 18 h
Description: as §5, §1
In a manner similar to that described in Example 4, antibacterial activity of the invention compound was determined. The bacterium used for the test was Staphylococcus aureus TI-1.

[8] = Enterococcus Seriolicida KG86050
[9] = Enterococcus Seriolicida MS89060
[10] = Enterococcus Seriolicida MS89064
[11] = Enterococcus Seriolicida MS89066
[12] = Enterococcus Seriolicida MS89068
[13] = Enterococcus Seriolicida SE94-001
[14] = Enterococcus Seriolicida SE94-003
[15] = Enterococcus Seriolicida SE94-004
[16] = Enterococcus Seriolicida SE94-005

Row | SMILES | MIC (Pasteurella from fish) [µg/mL] | IC (Pasteurella from fish; Pasteurella piscicida KP94-04) | IC (Pasteurella from fish; Pasteurella piscicida KP94-05) | IC (Pasteurella from fish; Pasteurella piscicida KP94-06) | IC (Enterococcus from fish; Enterococcus Seriolicida HI) | IC (Enterococcus from fish; [8]) | IC (Enterococcus from fish; [9]) | IC (Enterococcus from fish; [10]) | IC (Enterococcus from fish; [11]) | IC (Enterococcus from fish; [12]) | IC (Enterococcus from fish; [13]) | MIC (Enterococcus from fish) [µg/mL] | IC (Enterococcus from fish; [14]) | IC (Enterococcus from fish; [15]) | IC (Enterococcus from fish; [16]) | MIC [1] [µg/mL] | MIC ([2]; MRSA strain 891179) [µg/mL] | MIC ([2]; MRSA strain 891185) [µg/mL] | MIC ([2]; MRSA strain 891187) [µg/mL] | MIC ([2]; MRSA strain 891192) [µg/mL] | other results
1 | CC(Oc1cccc(Oc2ccc(Br)cc2F)c1)C(=O)C(C#N)c1cccc(Cl)c1 (stereo not drawn) [Compound No. 110, 4-[3-(4-bromo-2-fluorophenoxy)phenoxy]-2-(3-chlorophenyl)-3-oxopentanonitrile] | 10 to 100 (≈ 20.5 to 205 µM) | ≤100 (MIC-equivalent values obtained at the succesive 2-fold dilution of the sample are 100-10 µg/ml) | ≤100 (MIC-equivalent values obtained at the succesive 2-fold dilution of the sample are 100-10 µg/ml) | ≤100 (MIC-equivalent values obtained at the succesive 2-fold dilution of the sample are 100-10 µg/ml) | ≤10 (10-1 µg/ml) | ≤10 (10-1 µg/ml) | ≤10 (10-1 µg/ml) | ≤10 (10-1 µg/ml) | ≤10 (10-1 µg/ml) | ≤10 (10-1 µg/ml) | ≤10 (10-1 µg/ml) | 1 to 10 (≈ 2.05 to 20.5 µM) | ≤10 (10-1 µg/ml) | ≤10 (10-1 µg/ml) | ≤10 (10-1 µg/ml) | 1 to 10 (≈ 2.05 to 20.5 µM) | 1 to 10 (≈ 2.05 to 20.5 µM) | 1 to 10 (≈ 2.05 to 20.5 µM) | 1 to 10 (≈ 2.05 to 20.5 µM) | 1 to 10 (≈ 2.05 to 20.5 µM) | MIC ([2]; MRSA strain 900048): 1 to 10 µg/mL (≈ 2.05 to 20.5 µM); MIC ([2]; MRSA strain 900056): 1 to 10 µg/mL (≈ 2.05 to 20.5 µM); MIC [3]: 10 to 100 µg/mL (≈ 20.5 to 205 µM); MIC [4]: 1 to 10 µg/mL (≈ 2.05 to 20.5 µM)
2 | COc1cccc(C(C#N)C(=O)C(C)Oc2ccc(Oc3ncc(C(F)(F)F)cc3Cl)cc2)c1 (stereo not drawn) [compound 17] |  |  |  |  |  |  |  |  |  |  |  |  |  |  |  |  |  |  |  |  | MIC [5]: 10 to 100 µg/mL (≈ 20.4 to 204 µM); MIC [6]: 10 to 100 µg/mL (≈ 20.4 to 204 µM); MIC [7]: 10 to 100 µg/mL (≈ 20.4 to 204 µM)
3 | CC(Oc1cc(Oc2ccc(C(F)(F)F)cc2Cl)cc(Oc2ccc(C(F)(F)F)cc2Cl)c1)C(=O)C(C#N)c1ccc(Cl)c(Cl)c1 (stereo not drawn) [compound 210] | 10 to 100 (≈ 13.8 to 138 µM) | ≤100 (MIC-equivalent values obtained at the succesive 2-fold dilution of the sample are 100-10 µg/ml) | ≤100 (MIC-equivalent values obtained at the succesive 2-fold dilution of the sample are 100-10 µg/ml) | ≤100 (MIC-equivalent values obtained at the succesive 2-fold dilution of the sample are 100-10 µg/ml) | ≤10 (10-1 µg/ml) | ≤10 (10-1 µg/ml) | ≤10 (10-1 µg/ml) | ≤10 (10-1 µg/ml) | ≤10 (10-1 µg/ml) | ≤10 (10-1 µg/ml) | ≤10 (10-1 µg/ml) | 1 to 10 (≈ 1.38 to 13.8 µM) | ≤10 (10-1 µg/ml) | ≤10 (10-1 µg/ml) | ≤10 (10-1 µg/ml) | 1 to 10 (≈ 1.38 to 13.8 µM) | 1 to 10 (≈ 1.38 to 13.8 µM) | 1 to 10 (≈ 1.38 to 13.8 µM) | 1 to 10 (≈ 1.38 to 13.8 µM) | 1 to 10 (≈ 1.38 to 13.8 µM) | MIC ([2]; MRSA strain 900048): 1 to 10 µg/mL (≈ 1.38 to 13.8 µM); MIC ([2]; MRSA strain 900056): 1 to 10 µg/mL (≈ 1.38 to 13.8 µM); MIC [3]: 10 to 100 µg/mL (≈ 13.8 to 138 µM); MIC [4]: 1 to 10 µg/mL (≈ 1.38 to 13.8 µM)
4 | CC(Oc1cccc(Oc2ccc(C(F)(F)F)cc2Cl)c1)C(=O)C(C#N)c1ccccc1 (stereo not drawn) [Compound No. 105, 4-[3-(2-chloro-4-trifluoromethylphenoxy)phenoxy]-3-oxo-2-phenylpentanonitrile] | 10 to 100 (≈ 21.7 to 217 µM) | ≤100 (MIC-equivalent values obtained at the succesive 2-fold dilution of the sample are 100-10 µg/ml) | ≤100 (MIC-equivalent values obtained at the succesive 2-fold dilution of the sample are 100-10 µg/ml) | ≤100 (MIC-equivalent values obtained at the succesive 2-fold dilution of the sample are 100-10 µg/ml) | ≤10 (10-1 µg/ml) | ≤10 (10-1 µg/ml) | ≤10 (10-1 µg/ml) | ≤10 (10-1 µg/ml) | ≤10 (10-1 µg/ml) | ≤10 (10-1 µg/ml) | ≤10 (10-1 µg/ml) | 1 to 10 (≈ 2.17 to 21.7 µM) | ≤10 (10-1 µg/ml) | ≤10 (10-1 µg/ml) | ≤10 (10-1 µg/ml) | 1 to 10 (≈ 2.17 to 21.7 µM) | 1 to 10 (≈ 2.17 to 21.7 µM) | 1 to 10 (≈ 2.17 to 21.7 µM) | 1 to 10 (≈ 2.17 to 21.7 µM) | 1 to 10 (≈ 2.17 to 21.7 µM) | MIC ([2]; MRSA strain 900048): 1 to 10 µg/mL (≈ 2.17 to 21.7 µM); MIC ([2]; MRSA strain 900056): 1 to 10 µg/mL (≈ 2.17 to 21.7 µM); MIC [3]: 10 to 100 µg/mL (≈ 21.7 to 217 µM); MIC [4]: 1 to 10 µg/mL (≈ 2.17 to 21.7 µM)
5 | CC(Oc1ccc(Oc2ncc(C(F)(F)F)cc2Cl)cc1)C(=O)C(C#N)c1ccc(F)c(F)c1 (stereo not drawn) [compound 27] |  |  |  |  |  |  |  |  |  |  |  |  |  |  |  |  |  |  |  |  | MIC [5]: 1 to 10 µg/mL (≈ 2.01 to 20.1 µM); MIC [6]: 10 to 100 µg/mL (≈ 20.1 to 201 µM); MIC [7]: 1 to 10 µg/mL (≈ 2.01 to 20.1 µM)
6 | CC(Oc1ccc(Oc2ncc(C(F)(F)F)cc2Cl)cc1)C(=O)C(C#N)c1cccc(Cl)c1 (stereo not drawn) [Compound No. 10] |  |  |  |  |  |  |  |  |  |  |  |  |  |  |  |  |  |  |  |  | MIC [5]: 1 to 10 µg/mL (≈ 2.02 to 20.2 µM); MIC [6]: 10 to 100 µg/mL (≈ 20.2 to 202 µM); MIC [7]: 1 to 10 µg/mL (≈ 2.02 to 20.2 µM)
